Experimental data published in US9540338B2, “Substituted cinnamic acid amides for treating pain” (NIPPON ZOKI PHARMACEUTICAL CO., LTD., priority 2012, dated 2017).
Marks after values point to notes of the source that are not given here. Each block holds one compound with its values, some of them ahead of it.

Columns and labels:
ddY-type mice = assay: Analgesic efficacy test (1): acetic acid writhing test; type: in vivo; conditions: Mus musculus, writhing number, mean ± standard error, 8 mice per group, read-out: Suppressive Rate; for inhibition in vivo at 10 mg/kg: oral single dose 10 mg/kg; for inhibition in vivo at 100 mg/kg: oral single dose 100 mg/kg
From the text: A compound of the present invention was orally administered to mice, to carry out an analgesic efficacy test according to acetic acid writhing test. As an experimental animal, 4-week old male ddY-type mice were previously bred, and thereafter 8 mice per one group were used in the experiment. A solution or suspension prepared by dissolving or suspending a compound of the present invention in a 0.5% (w/v) aqueous CMC-Na solution was orally administered as a test substance in a single dose. While, to a control group, a 0.5% (w/v) aqueous CMC-Na solution was administered in the same manner After 25 minutes from administration, the mice were intraperitoneally administered with a 0.7% (v/v) acetic acid/physiological saline at the dose of 10 mL/kg. From 5 minutes thereafter, writhing number in a 10-minute period was counted, and a suppressive rate for each individual (mean±standard error) was calculated by the following formula: […]
In the test for significance difference, Bartlett's test was carried out in the comparison between multiple groups of the group administered with test substance with the control group. In the case of homoscedasticity, Dunnett's multiple comparison test of parametrics, and in the case of heteroscedasticity, Dunnett's multiple comparison test of non-parametrics were used. In addition, in the test of dose dependency, Jonckheere-Terpstra's test was used. In all cases, significance difference was considered to be found at P<0.05 (indicated as “*” in the table).

Chung model rat = assay: Analgesic efficacy test (2): Chung model rat, neuropathic pain model (allodynia, von Frey filament); type: in vivo, rats; conditions: mean ± standard error
Method: An analgesic efficacy test was conducted using a Chung model rat, a neuropathic pain model. Nine-week old Wistar male rats were previously bred as an experimental animal, and a model rat was then prepared in accordance with the method of Kim and Chung (Pain, 50, 355-363, 1992). Specifically, left L5 spinal nerves of rats were exposed under anesthetization with pentobarbital (40 mg/kg, intraperitoneal administration), and firmly ligated with 5-0 silk yarn at L5 dorsal root ganglion peripheral side. The animals were placed in a transparent acrylic cage of which bottom was wire netted The measurement of allodynia was carried out using von Frey filament (manufactured by North Coast Medical Inc.) and a 50% reaction threshold was calculated according to an up-down method, in accordance with a method of Chaplan et al. (J. Neurosci. Method, 53, 55-63, 1994). The 50% reaction thresholds were measured twice before injury of the spinal nerve, and those animals of which thresholds were outside the standard were removed from the operation of spinal nerve injury. On or after 14 days from the spinal nerve injury, a 50% reaction threshold was measured, and those showing thresholds of 1 g or more and less than 4 g were used as experimental animal. The group was constituted by 7 or 8 rats per group so that an average of a 50% reaction threshold for each group would be nearly even.
A solution or suspension prepared by dissolving or suspending a compound of the present invention in a 0.5% (w/v) aqueous CMC-Na solution was orally administered as a test substance in a single dose. Also, a 0.5% (w/v) aqueous CMC-Na solution was administered in the same manner to the control group for nerve injury. The measurements of allodynia were carried out with the passage of time after administration, and a 50% reaction threshold (mean±standard error) of each group at action peak was calculated. In the test for significance difference, Bartlett's test was carried out in the comparison between multiple groups of the group administered with test substance with the control group for nerve injury. In the case of homoscedasticity, Dunnett's multiple comparison test of parametrics, and in the case of heteroscedasticity, Dunnett's multiple comparison test of non-parametrics were used. In all cases, significance difference was considered to be found at P<0.05 (indicated as “*” in the tables).

[1] = oral 1 mg/kg, measurement point 30 minute (action peak)
[2] = oral 10 mg/kg, measurement point 30 minute (action peak)
[3] = oral 1 mg/kg, measurement point 90 minute (action peak)
[4] = oral 10 mg/kg, measurement point 90 minute (action peak)
[5] = oral 1 mg/kg, measurement point 60 minute (action peak)
[6] = oral 10 mg/kg, measurement point 60 minute (action peak)

Structure (SMILES): O=C(/C=C/c1ccccc1F)NCc1cccnc1 [Compound 2, (E)-3-(2-Fluorophenyl)-N-(3-pyridylmethyl)-2-propenamide]
- melting point: 115 to 116 °C
- inhibition in vivo at 10 mg/kg (ddY-type mice): 39.9 ± 10.4%
- inhibition in vivo at 100 mg/kg (ddY-type mice): 39.9 ± 10%
- 50% Reaction Threshold, Group Administered with Test Substance, After Administration (Chung model rat; [1]): 4.85 ± 0.78 g
- 50% Reaction Threshold, Group Administered with Test Substance, After Administration (Chung model rat; [2]): 7.76 ± 1.30* g

Structure (SMILES): O=C(/C=C/c1ccccc1F)NCCc1ccncc1 [Compound 3, (E)-3-(2-Fluorophenyl)-N-[2-(4-pyridyl)ethyl]-2-propenamide]
- melting point: 95 to 96 °C
- inhibition in vivo at 10 mg/kg (ddY-type mice): 44.4 ± 11.1%
- inhibition in vivo at 100 mg/kg (ddY-type mice): 59 ± 8.1%
- 50% Reaction Threshold, Group Administered with Test Substance, After Administration (Chung model rat; [3]): 6.74 ± 1.04* g
- 50% Reaction Threshold, Group Administered with Test Substance, After Administration (Chung model rat; [4]): 10.06 ± 1.60* g

Structure (SMILES): O=C(/C=C/c1ccccc1F)NCCN1CCCCC1 [Compound 4, (E)-3-(2-Fluorophenyl)-N-[2-(1-piperidyl)ethyl]-2-propenamide]
- melting point: 84 to 85 °C
- inhibition in vivo at 10 mg/kg (ddY-type mice): 47 ± 7.8%
- inhibition in vivo at 100 mg/kg (ddY-type mice): 49 ± 9.2%
- 50% Reaction Threshold, Group Administered with Test Substance, After Administration (Chung model rat; [1]): 3.98 ± 0.21 g
- 50% Reaction Threshold, Group Administered with Test Substance, After Administration (Chung model rat; [2]): 7.35 ± 0.95* g

Structure (SMILES): O=C(/C=C/c1ccccc1F)NCCN1CCOCC1 [Compound 5, (E)-3-(2-Fluorophenyl)-N-(2-morpholinoethyl)-2-propenamide]
- melting point: 112 to 113 °C
- inhibition in vivo at 10 mg/kg (ddY-type mice): 34.8 ± 10.3%
- inhibition in vivo at 100 mg/kg (ddY-type mice): 95.7 ± 3.1%
- 50% Reaction Threshold, Group Administered with Test Substance, After Administration (Chung model rat; [3]): 4.91 ± 0.73 g
- 50% Reaction Threshold, Group Administered with Test Substance, After Administration (Chung model rat; [4]): 8.68 ± 1.91* g

Structure (SMILES): O=C(/C=C/c1ccccc1F)NCCN1CCN(C2CCCCC2)CC1 [Compound 6, (E)-N-[2-(4-Cyclohexylpiperazin-1-yl)ethyl]-3-(2-fluorophenyl)-2-propenamide]
- melting point: 113 to 114 °C
- inhibition in vivo at 10 mg/kg (ddY-type mice): 29.6 ± 12.8%
- inhibition in vivo at 100 mg/kg (ddY-type mice): 70.4 ± 6.1%
- 50% Reaction Threshold, Group Administered with Test Substance, After Administration (Chung model rat; [3]): 10.87 ± 1.24* g
- 50% Reaction Threshold, Group Administered with Test Substance, After Administration (Chung model rat; [4]): 14.06 ± 0.61* g

Structure (SMILES): O=C(/C=C/c1ccccc1F)NCCc1c[nH]cn1 [Compound 18, (E)-3-(2-Fluorophenyl)-N-[2-(1H-imidazol-4-yl)ethyl]-2-propenamide]
- melting point: 152 to 153 °C
- inhibition in vivo at 10 mg/kg (ddY-type mice): 54.3 ± 13.2%
- inhibition in vivo at 100 mg/kg (ddY-type mice): 62.3 ± 14.6%
- 50% Reaction Threshold, Group Administered with Test Substance, After Administration (Chung model rat; [3]): 10.92 ± 1.33* g
- 50% Reaction Threshold, Group Administered with Test Substance, After Administration (Chung model rat; [4]): 11.44 ± 1.95* g

Continued, in another order:

- melting point: 84 to 85 °C
Structure (SMILES): O=C(/C=C/c1ccccc1F)NCCCN1CCN(C2CCCCC2)CC1 [Compound 7, (E)-N-[3-(4-Cyclohexylpiperazin-1-yl)propyl]-3-(2-fluorophenyl)-2-propenamide]
- inhibition in vivo at 10 mg/kg (ddY-type mice): 41.5 ± 17.2%
- inhibition in vivo at 100 mg/kg (ddY-type mice): 68.4 ± 8%
- 50% Reaction Threshold, Group Administered with Test Substance, After Administration (Chung model rat; [3]): 9.05 ± 1.80 g
- 50% Reaction Threshold, Group Administered with Test Substance, After Administration (Chung model rat; [4]): 12.70 ± 1.16* g

- melting point: 93 to 94 °C
Structure (SMILES): Cn1cccc1CCNC(=O)/C=C/c1ccccc1F [Compound 8, (E)-3-(2-Fluorophenyl)-N-[2-(1-methyl-1H-pyrrol-2-yl)ethyl]-2-propenamide]
- inhibition in vivo at 10 mg/kg (ddY-type mice): 8.5 ± 13.9%
- inhibition in vivo at 100 mg/kg (ddY-type mice): 28.1 ± 8.3%
- 50% Reaction Threshold, Group Administered with Test Substance, After Administration (Chung model rat; [3]): 4.37 ± 0.53 g
- 50% Reaction Threshold, Group Administered with Test Substance, After Administration (Chung model rat; [4]): 5.57 ± 1.18* g

- melting point: 153 to 154 °C
Structure (SMILES): Cl.O=C(/C=C/c1ccccc1F)NCCCN1CCOCC1 [Compound 11, (E)-3-(2-Fluorophenyl)-N-(3-morpholinopropyl)-2-propenamide hydrochloride]
- inhibition in vivo at 10 mg/kg (ddY-type mice): 23.2 ± 12.8%
- inhibition in vivo at 100 mg/kg (ddY-type mice): 68.9 ± 4.5%
- 50% Reaction Threshold, Group Administered with Test Substance, After Administration (Chung model rat; [5]): 11.69 ± 1.80* g
- 50% Reaction Threshold, Group Administered with Test Substance, After Administration (Chung model rat; [6]): 14.27 ± 0.73* g

- melting point: 99 to 100 °C
Structure (SMILES): CN(C)CCCNC(=O)/C=C/c1ccccc1F.Cl [Compound 12, (E)-N-(3-Dimethylaminopropyl)-3-(2-fluorophenyl)-2-propenamide hydrochloride]
- inhibition in vivo at 10 mg/kg (ddY-type mice): -4.3 ± 12%
- inhibition in vivo at 100 mg/kg (ddY-type mice): 49.4 ± 14.5%
- 50% Reaction Threshold, Group Administered with Test Substance, After Administration (Chung model rat; [5]): 4.64 ± 0.70 g
- 50% Reaction Threshold, Group Administered with Test Substance, After Administration (Chung model rat; [6]): 5.00 ± 1.17 g

- melting point: 177 to 178 °C
Structure (SMILES): Cl.NCCCCNC(=O)/C=C/c1ccccc1F [Compound 14, (E)-N-(4-Aminobutyl)-3-(2-fluorophenyl)-2-propenamide hydrochloride]
- inhibition in vivo at 10 mg/kg (ddY-type mice): 46.3 ± 11.1%
- inhibition in vivo at 100 mg/kg (ddY-type mice): 76.8 ± 4.1%
- 50% Reaction Threshold, Group Administered with Test Substance, After Administration (Chung model rat; [5]): 12.38 ± 1.15* g
- 50% Reaction Threshold, Group Administered with Test Substance, After Administration (Chung model rat; [6]): 13.61 ± 0.96* g
